Measurements as given in patent US4272437A, “Antibacterial agents, and 4-thio azetidinone intermediates” (priority 1979, dated 1981).
In brackets after ≈: the same amount, converted by molar mass. Counter-ions that a name gives are not always drawn. Like-named read-outs stand apart in the source and are kept apart here.

Columns and labels:
Pr. mirabilis A-9900 = assay: MIC, tube dilution, Proteus mirabilis A9900; type: cell-based; conditions: Proteus mirabilis, A9900, Proteus mirabilis A9900; overnight 37° C.; read-out: Minimum Inhibitory Concentration (M.I.C.)
Description: (§1) Representative compounds of the present invention were subjected to in vitro antibiotic screening against a variety of microorganisms.

Str. pneumoniae A-9585 = assay: MIC, tube dilution, Streptococcus pneumoniae A9585; type: cell-based; conditions: Streptococcus pneumoniae, A9585, Str. pneumoniae A9585; overnight 37° C., Nutrient Broth; read-out: Minimum Inhibitory Concentration (M.I.C.)
Description: as §1

[1] = test system: Staph. aureus A-9537 and 50% serum; assay: MIC, tube dilution, Staph. aureus A9537 + 50% serum; type: cell-based, Staphylococcus aureus; conditions: Staphylococcus aureus, overnight 37° C., read-out: Minimum Inhibitory Concentration (M.I.C.)
Description: as §1

[2] = test system: Staph. aureus (Meth-Res) A-15097; assay: MIC, tube dilution, Staphylococcus aureus A15097 (Meth-Res); type: cell-based; conditions: Staphylococcus aureus, overnight 37° C.
Description: as §1

Ent. cloacae A-9659 = assay: MIC, tube dilution, Enterobacter cloacae A9659; type: cell-based; conditions: Enterobacter cloacae, A9659, Enterobacter cloacae A9659; overnight 37° C.; read-out: Minimum Inhibitory Concentration (M.I.C.)
Description: as §1

Pr. morganii A-15153 = assay: MIC, tube dilution, Proteus morganii A15153; type: cell-based; conditions: Morganella morganii, A15153, Proteus morganii A15153; overnight 37° C.; read-out: Minimum Inhibitory Concentration (M.I.C.)
Description: as §1

Staph. aureus A-9537 = assay: MIC, tube dilution, Staphylococcus aureus A9537; type: cell-based; conditions: Staphylococcus aureus, A9537, Staph. aureus A9537; overnight 37° C., Nutrient Broth; read-out: Minimum Inhibitory Concentration (M.I.C.)
Description: as §1

[3] = test system: Staph. aureus (Pen-Res) A-9606; assay: MIC, tube dilution, Staphylococcus aureus A9606 (Pen-Res); type: cell-based; conditions: Staphylococcus aureus, overnight 37° C.
Description: as §1

Str. pyogenes A-9604 = assay: MIC, tube dilution, Streptococcus pyogenes A9604; type: cell-based; conditions: Streptococcus pyogenes, A9604, Str. pyogenes A9604; overnight 37° C., Nutrient Broth; read-out: Minimum Inhibitory Concentration (M.I.C.)
Description: as §1

Proteus rettgeri A21203 = assay: MIC, tube dilution, Proteus rettgeri A21203; type: cell-based; conditions: Providencia rettgeri, overnight 37° C., read-out: Minimum Inhibitory Concentration (M.I.C.)
Description: as §1

[4] = test system: Klebsiella species A20468; assay: MIC, tube dilution, Klebsiella species A20468; type: cell-based; conditions: Klebsiella species (K. pneumoniae) A20468; overnight 37° C.; read-out: Minimum Inhibitory Concentration (M.I.C.)
Description: as §1

Ent. cloacae A-9656 = assay: MIC, tube dilution, Enterobacter cloacae A9656; type: cell-based; conditions: overnight 37° C., read-out: Minimum Inhibitory Concentration (M.I.C.)
Description: as §1

K. pneumoniae A-15130 = assay: MIC, tube dilution, Klebsiella pneumoniae A15130; type: cell-based; conditions: Klebsiella pneumoniae, A15130, K. pneumoniae A15130; overnight 37° C.; read-out: Minimum Inhibitory Concentration (M.I.C.)
Description: as §1

E. coli A-15119 = assay: MIC, tube dilution, Escherichia coli A15119; type: cell-based; conditions: Escherichia coli, A15119, E. coli A15119; overnight 37° C.; read-out: Minimum Inhibitory Concentration (M.I.C.)
Description: as §1

Str. faecalis A-20688 = assay: MIC, tube dilution, Streptococcus faecalis A20688; type: cell-based; conditions: Enterococcus faecalis, A20688, Str. faecalis A20688; overnight 37° C.; read-out: Minimum Inhibitory Concentration (M.I.C.)
Description: as §1

Ps. aeruginosa A-9843A = assay: MIC, tube dilution, Pseudomonas aeruginosa A9843A; type: cell-based; conditions: Pseudomonas aeruginosa, A9843A, read-out: Minimum Inhibitory Concentration (M.I.C.), Pseudomonas aeruginosa A9843A; overnight 37° C.
Description: as §1

Ser. marcescens A-20019 = assay: MIC, tube dilution, Serratia marcescens A20019; type: cell-based; conditions: Serratia marcescens, A20019, Serratia marcescens A20019; overnight 37° C.; read-out: Minimum Inhibitory Concentration (M.I.C.)
Description: as §1

E. coli A-20341-1 = assay: MIC, tube dilution, Escherichia coli A20341-1; type: cell-based
Description: as §1

Proteus vulgaris A21559 = assay: MIC, tube dilution, Proteus vulgaris A21559; type: cell-based; conditions: Proteus vulgaris, A21559, Proteus vulgaris A21559; overnight 37° C.; read-out: Minimum Inhibitory Concentration (M.I.C.)
Description: as §1

Ps. aeruginosa A-21213 = assay: MIC, tube dilution, Pseudomonas aeruginosa A21213; type: cell-based; conditions: overnight 37° C., read-out: Minimum Inhibitory Concentration (M.I.C.)
Description: as §1

[5] = Staph. aureus A15097 (Meth-Res), read-out: Minimum Inhibitory Concentration (M.I.C.)
[6] = Staph. aureus A9606 (Pen-Res), read-out: Minimum Inhibitory Concentration (M.I.C.)
[7] = A21203, Proteus rettgeri A21203
[8] = Enterobacter cloacae, A9656, Enterobacter cloacae A9656
[9] = Escherichia coli, A203411, E. coli A20341-1; overnight 37° C.; read-out: Minimum Inhibitory Concentration (M.I.C.)
[10] = Pseudomonas aeruginosa, A21213, Pseudomonas aeruginosa A21213

| SMILES | MIC (Pr. mirabilis A-9900) [µg/mL] | MIC (Str. pneumoniae A-9585) [µg/mL] | MIC [1] [µg/mL] | MIC [2, 5] [µg/mL] | MIC (Ent. cloacae A-9659) [µg/mL] | MIC (Pr. morganii A-15153) [µg/mL] | MIC (Staph. aureus A-9537) [µg/mL] | MIC [3, 6] [µg/mL] | MIC (Str. pyogenes A-9604) [µg/mL] | MIC (Proteus rettgeri A21203; [7]) [µg/mL] | MIC [4] [µg/mL] | MIC (Ent. cloacae A-9656; [8]) [µg/mL] | MIC (K. pneumoniae A-15130) [µg/mL] | MIC (E. coli A-15119) [µg/mL] | MIC (Str. faecalis A-20688) [µg/mL] | MIC (Ps. aeruginosa A-9843A) [µg/mL] | MIC (Ser. marcescens A-20019) [µg/mL] | MIC (E. coli A-20341-1; [9]) [µg/mL] | MIC (Proteus vulgaris A21559) [µg/mL] | MIC (Ps. aeruginosa A-21213; [10]) [µg/mL] | also measured |
| --- | --- | --- | --- | --- | --- | --- | --- | --- | --- | --- | --- | --- | --- | --- | --- | --- | --- | --- | --- | --- | --- |
| CC1=C(C(=O)O)N2C(=O)[C@@H]([C@H](C)O)[C@H]2S1 (relative stereo) [Example 61, (1'S,5R,6R and 1'R,5S,6S) 6-(1'-Hydroxy-1'-ethyl)-2-methylpenem-3-carboxylic Acid (isomer A)] | 2 (≈ 8.72 µM) | 0.03 (≈ 0.131 µM) | 4 | 2 (≈ 8.72 µM) | 8 (≈ 34.9 µM) | 8 (≈ 34.9 µM) | 0.5 (≈ 2.18 µM) | 1 (≈ 4.36 µM) | 0.06 (≈ 0.262 µM) | 2 (≈ 8.72 µM) | 63 (≈ 275 µM) | 32 (≈ 140 µM) | 8 (≈ 34.9 µM) | 2 (≈ 8.72 µM) | 2 (≈ 8.72 µM) | 63 (≈ 275 µM) | 8 (≈ 34.9 µM) | 8 (≈ 34.9 µM) | 4 (≈ 17.4 µM) |  |  |
| COCOC[C@H](O)[C@H]1C(=O)N2C(C(=O)O)=C(C)S[C@H]12 (relative stereo) [Example 105, (1'R,5R,6S and 1'S,5S,6R) 6-(1'-Hydroxy-2'-methoxymethoxy-2'-ethyl)-2-methylpenem-3-carboxylic acid (Isomer C)] | > 63 | 4 (≈ 13.8 µM) | > 32 | > 63 | 63 (≈ 218 µM) | > 63 | > 8 | 63 (≈ 218 µM) | 4 (≈ 13.8 µM) | 32 (≈ 111 µM) | > 63 | 63 (≈ 218 µM) | 63 (≈ 218 µM) | 63 (≈ 218 µM) | > 63 | 63 (≈ 218 µM) | > 63 | 63 (≈ 218 µM) | > 63 | 63 (≈ 218 µM) |  |
| CC1=C(C(=O)O)N2C(=O)[C@H](CNC=O)[C@H]2S1 (relative stereo) [Example 92, 6-Formamidomethyl-2-methylpenem-3-carboxylic acid, sodium and potassium salts] | 32 | 0.5 | 32 | 32 | 63 | 63 | 8 | 16 | 0.5 | 32 | 63 | 63 | 63 | 32 | > 63 | > 63 | 63 | 32 | 32 | > 63 |  |
| O=C(O)C1=C(C2CC2)SC2CC(=O)N12 (stereo not drawn) [Example 14, 2-Cyclopropylpenem-3-carboxylic Acid] | 4 (≈ 18.9 µM) | 0.06 (≈ 0.284 µM) | 16 | 2 (≈ 9.47 µM) | 16 (≈ 75.7 µM) | 16 (≈ 75.7 µM) | 0.13 (≈ 0.615 µM) |  | 0.25 (≈ 1.18 µM) | 4 (≈ 18.9 µM) | > 125 | 16 (≈ 75.7 µM) | 16 (≈ 75.7 µM) | 4 (≈ 18.9 µM) | 63 (≈ 298 µM) | 125 (≈ 592 µM) | 8 (≈ 37.9 µM) | 63 (≈ 298 µM) |  |  | MIC (Ps. aeruginosa A-21213; Pseudomonas aeruginosa A21213): 125 µg/mL (≈ 592 µM) |
| O=C([O-])C1=C(CO)S[C@@H]2CC(=O)N12.[Na+] [Preparation 20, Sodium 2-Hydroxymethylpenem-3-carboxylate] | 16 | 0.25 | 16 |  | 63 | 32 | 2 |  | 1 |  | > 125 |  | 63 | 16 | > 125 | 125 | 32 |  |  |  | MIC ([2]; read-out: Minimum Inhibitory Concentration (M.I.C.), Staph. aureus A15097 (Meth-Res)): 8 µg/mL; MIC (Ps. aeruginosa A-21213; Pseudomonas aeruginosa A21213): > 125 µg/mL; MIC ([3]; read-out: Minimum Inhibitory Concentration (M.I.C.), Staph. aureus A9606 (Pen-Res)): 4 µg/mL; MIC (Proteus rettgeri A21203; Proteus rettgeri A21203): 32 µg/mL; MIC (Ent. cloacae A-9656; Enterobacter cloacae A9656): 32 µg/mL; MIC (E. coli A-20341-1; Escherichia coli, A203411; E. coli A20341-1; overnight 37° C.; read-out: Minimum Inhibitory Concentration (M.I.C.)): 63 µg/mL |
